Assay [1] deals with adjuvant-induced arthritis rat. Nature of the assay: Effect of inhibition of hind paw weight distribution in adjuvant-induced arthritis rat. Format: in vivo. The note with it: oral, female Lewis rats, day after adjuvant, Vehicle group 0%, Normal group 100%, read-out: Inhibition rate (%) of hind paw load difference. As for the experimental part:
For this test, female Lewis rats (7- to 8-weeks-old) were used. 50 μL of killed Mycobacterium tuberculosis H37 Ra (manufactured by DIFCO MICROBIOLOGY) suspended in liquid paraffin at a concentration of 10 mg/mL was subcutaneously administered to the right hind footpad. On the next day, the test substance was administered orally, and after some time, the load on the left and right hind paws was measured using an Incapacitance Tester (manufactured by Linton Instruments), thereby calculating a difference in the load between left and right. The load difference of a Vehicle-administered group was regarded as an inhibition rate of 0%, and the load difference of a Normal group was regarded as an inhibition rate of 100%, thereby allowing calculation of the inhibition rate of the test substance.
In the table, Ex represents an example number of a test compound described later, and values in the parenthesis indicates a dose.

For a further assay, the target named is T1, human CB2 (Homo sapiens, UniProt P34972).
T1 construct: expressed in transfected cells; host or cells: CHO cells
T1 sequence (P34972 whole entry): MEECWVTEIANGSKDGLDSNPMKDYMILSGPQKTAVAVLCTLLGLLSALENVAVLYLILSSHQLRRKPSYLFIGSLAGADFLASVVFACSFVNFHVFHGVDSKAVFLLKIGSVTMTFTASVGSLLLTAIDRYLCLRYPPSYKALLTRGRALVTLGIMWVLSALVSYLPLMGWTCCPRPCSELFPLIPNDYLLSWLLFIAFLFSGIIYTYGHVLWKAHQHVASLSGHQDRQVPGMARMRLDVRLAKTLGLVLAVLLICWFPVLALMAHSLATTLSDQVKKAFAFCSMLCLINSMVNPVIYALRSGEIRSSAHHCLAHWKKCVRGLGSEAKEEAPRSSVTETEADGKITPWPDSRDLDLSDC
The assay can be described thus: Test on inhibition of human CB2-mediated cyclic AMP (cAMP) production. The note with it: 30 nM test substance; forskolin 0.5 μM; human CB2-expressing CHO cells; 30 minutes at room temperature; read-out: Inh(%): inhibition rate of cAMP increase. Format: cell-based. As for the experimental part:
This test was performed using CHO cells caused to express human CB2 (“Molecular Pharmacology”, 1995, Vol. 48, pp 443-450).
A human CB2-expressing CHO cell (2.5×10^3/mL) suspension and an assay medium supplemented with a test substance and forskolin (final concentration of 0.5 μM) were mixed together in equal amounts, followed by incubation for 30 minutes at room temperature, and then a 0.6% Triton X-100 solution was added thereto, thereby obtaining a cell lysate. A cAMP concentration in the cell lysate was measured using a cAMP kit (manufactured by Cisbio International). The assay medium was obtained by supplementing α-MEM manufactured by Invitrogen with 0.02% CHAPS, 1 mM isobutylmethylxanthine, and 0.5 mg/mL bovine serum albumin. The cAMP concentration in a forskolin-free cell suspension was regarded as 0% of increase in cAMP, and the cAMP concentration in a forskolin-added cell suspension was regarded as a 100% increase in cAMP, thereby allowing calculation of the inhibition rate of intracellular cAMP increase in 30 nM test substance.
In the table, Ex represents the example number of a test compound described later, and Inh represents inhibition rate of cAMP increase.

Drawing on patent US8791106B2, “Fused ring pyridine compound” (Astellas Pharma Inc., priority 2010, dated 2014), this text covers inhibition in vivo and inhibition for 23 compounds.

Each structure is given as a SMILES string.

For orientation: inhibition means the drop in the measured response relative to a control, in per cent. On to `O=C(c1ncc(Nc2cccc(Cl)c2)c2c1CCCC2)N1CCS(=O)(=O)CC1` [Example 10], for which the inhibition in vivo at 0.1 mg/kg in assay [1] was 30%. For the same compound, the inhibition at 0.03 µM on human CB2 stood at 73%.
With `O=C(c1cnc(N[C@@H]2C[C@H]3CC[C@@H]2C3)c2c1CCCC2)N1CCOCC1` [Example 11], the inhibition at 0.03 µM at human CB2 came out at 77%.
Regarding `O=C(c1cnc(Nc2cccc(OC(F)(F)F)c2)c2c1CCCC2)N1CCOCC1` [Example 16], in assay [1], the inhibition in vivo at 0.1 mg/kg was 29%. Besides, the inhibition at 0.03 µM at human CB2 worked out at 87%.
For `O=C(c1cnc(Nc2cccc(Cl)c2)c2c1CCCC2)N1CCS(=O)(=O)CC1` [Example 30], the inhibition in vivo at 0.1 mg/kg in assay [1] was determined as 17%. Also, the inhibition at 0.03 µM at human CB2 came to 82%.
On to `O=C(c1ncc(Nc2cccc(C(F)(F)F)c2)c2c1CCCC2)N1CCS(=O)(=O)CC1` [Example 36], for which, in assay [1], the inhibition in vivo at 0.1 mg/kg came out at 49%. Also, on human CB2, the inhibition at 0.03 µM amounted to 82%.
For the compound `CC1(C)CCCC(Nc2ncc(C(=O)N3CCS(=O)(=O)CC3)c3c2CCCC3)C1` (stereo not shown) [Example 38], the inhibition at 0.03 µM at human CB2 amounted to 77%.
`O=C(c1cnc(Oc2cccc(C(F)(F)F)c2)c2c1CCCC2)N1CCS(=O)(=O)CC1` [Example 52]: the inhibition at 0.03 µM at human CB2 turned out to be 96%.
In the case of `O=C(c1ncc(Nc2ccc(F)c(Cl)c2)c2c1C1CCC2C1)N1CCS(=O)(=O)CC1` (stereo not shown) [Example 59], at human CB2, the inhibition at 0.03 µM came out at 93%.
Regarding `O=C(c1ncc(Nc2cccc(Cl)c2)c2c1C1CCC2C1)N1CCS(=O)(=O)CC1` (stereo not shown) [Example 94-1], the inhibition at 0.03 µM at human CB2 came to 97%.
On to `O=C(c1ncc(Nc2cccc(Cl)c2)c2c1C1CCC2CC1)N1CCS(=O)(=O)CC1` [Example 98], for which the inhibition at 0.03 µM at human CB2 turned out to be 96%.
`O=C(c1cnc(Nc2cccc(Cl)c2)c2c1C1CCC2CC1)N1CCS(=O)(=O)CC1` [Example 101]: the inhibition at 0.03 µM at human CB2 is 99%.
In the case of `O=C(c1cnc(Nc2cccc(C(F)(F)F)c2)c2c1C1CCC2CC1)N1CCS(=O)(=O)CC1` [Example 112], at human CB2, the inhibition at 0.03 µM is 103%.
Turning to `O=C(c1cnc(Nc2cccc(Cl)c2)c2c1C1CCC2C1)N1CCS(=O)(=O)CC1` (stereo not shown) [Example 117-2], the inhibition at 0.03 µM at human CB2 came to 100%.
For `O=C(c1cnc(Nc2ccc(F)c(Cl)c2)c2c1C1CCC2C1)N1CCS(=O)(=O)CC1` (stereo not shown) [Example 119-2], the inhibition in vivo at 0.3 mg/kg in assay [1] came out at 49%. The inhibition at 0.03 µM at human CB2 worked out at 91%.
For `O=C(c1cnc(Nc2cccc(OC(F)(F)F)c2)c2c1C1CCC2C1)N1CCS(=O)(=O)CC1` (stereo not shown) [Example 120-2], the inhibition in vivo at 0.3 mg/kg in assay [1] came out at 34%. At human CB2, the inhibition at 0.03 µM worked out at 105%.
In the case of `O=C(c1ncc(Nc2cccc(OC(F)(F)F)c2)c2c1C1CCC2CC1)N1CCS(=O)(=O)CC1` [Example 125], on human CB2, the inhibition at 0.03 µM turned out to be 100%.
Turning to `O=C(c1ncc(Nc2ccc(F)c(C(F)(F)F)c2)c2c1C1CCC2CC1)N1CCS(=O)(=O)CC1` [Example 129], the inhibition at 0.03 µM on human CB2 is 95%.
`O=C(c1cnc(Nc2ccc(F)c(C(F)(F)F)c2)c2c1C1CCC2C1)N1CCS(=O)(=O)CC1` (stereo not shown) [Example 133-2]: the inhibition in vivo at 0.3 mg/kg in assay [1] stood at 39%. The inhibition at 0.03 µM on human CB2 is 90%.
Taken in the same sequence, the figures for `O=C(c1cnc(Nc2ccc(F)c(F)c2)c2c1C1CCC2CC1)N1CCS(=O)(=O)CC1` [Example 138] were 54% and 97%.
Take `Cc1cccc(Nc2cnc(C(=O)N3CCS(=O)(=O)CC3)c3c2C2CCC3CC2)c1F` [Example 164]: the inhibition at 0.03 µM at human CB2 was 119%.
Turning to `Cc1ccc(F)c(Nc2cnc(C(=O)N3CCS(=O)(=O)CC3)c3c2C2CCC3CC2)c1` [Example 165], the inhibition at 0.03 µM on human CB2 is 111%.
On to `Cc1ccc(Nc2cnc(C(=O)N3CCS(=O)(=O)CC3)c3c2C2CCC3CC2)cc1Cl` [Example 167], for which, on human CB2, the inhibition at 0.03 µM is 115%.
For the compound `O=C(c1cnc(Nc2cc(F)cc(Cl)c2)c2c1C1CCC2CC1)N1CCS(=O)(=O)CC1` [Example 179], the inhibition at 0.03 µM at human CB2 is 100%.
